Read-outs that look alike come from different tables or passages of the source. Blank lines part the entries; values can stand above or below the compound they belong to.
Legend:
rHDHFR [1] = target: T1, rHDHFR (Homo sapiens, UniProt P00374); assay: rHDHFR binding: fluorescence titration and stopped-flow fluorescence; settings: for koff: calculated from KI=koff/kon; for Ki: dissociation constant, free rHDHFR, fluorescence titration; for Ki / kon: pH 7.4, 25° C.; for kon: stopped-flow fluorescence
T1 construct: purchased Sigma
T1 sequence (P00374 1-187): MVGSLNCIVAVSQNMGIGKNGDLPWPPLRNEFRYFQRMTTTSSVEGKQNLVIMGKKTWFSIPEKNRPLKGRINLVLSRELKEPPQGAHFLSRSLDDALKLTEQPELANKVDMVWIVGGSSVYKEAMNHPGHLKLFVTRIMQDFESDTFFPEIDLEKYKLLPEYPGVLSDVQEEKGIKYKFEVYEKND
Protocol: The experiments were carried out in a buffer containing 2-(N-morpholino)ethanesulfonic acid (Mes, 0.025 M), sodium acetate (0.025 M), tris-(hydroxymethyl)aminomethane (Tris 0.05 M), and NaCl (0.1 M) at pH 7.4 and 25° C. in the presence of QM and rHDHFR (0.5 μM).
Stopped-flow fluorescence experiments were carried out at pH 7.4 and 25° C. using an enzyme concentration of 0.25 μM. The reaction of rHDHFR with inhibitors was observed under pseudo-first order conditions by fluorescence at 340 nm (excitation at 290 nm). The data points s are the means of at least 3 (normally 5) repeat observations±SD. […] Aliquots (20 μl) of the incubation mixture was then diluted 50-fold into a reaction mixture containing the buffer, NADPH (100 μM), and DHF (10 μM) to give a final enzyme concentration of 1.5 nM.
(§1) The activity of rHDHFR was determined at 25° C. by following the decrease in the absorbance of NADPH and DHF at 340 nm (ε=11800 M-1 cm−1) (Stone and Morrison, 1986). Progress curves were obtained under ordered conditions ([NADPH]>>[DHF]). rHDHFR inhibition constants were calculated as described by Navarro-Perán et al., 2005b. The dissociation constant for the binding of inhibitors to free rHDHFR was determined at 25° C. by fluorescence titration in an automatic-scanning Perkin-Elmer LS50B spectrofluorimeter. Fluorescence emission spectra were recorded when rHDHFR fluorescence was excited at 290 nm. Stopped-flow fluorescence experiments were carried out using an Applied Photophysics Ltd. Pi-Star 180 spectrometer with a stopped-flow unit at 25° C.

rHDHFR [2] = target: T1, rHDHFR; assay: rHDHFR inhibition, progress curves; assay type: biochemical; settings: for Decrease % further EI reactions: decrease of KI to KI* by further EI-complex reactions; for Ki: overall (effective) inhibition constant, read-out: KI*
Protocol: The experiments were carried out in the same buffer as fluorescence experiments in the presence of NADPH (100 μM), DHF (10 μM), and rHDHFR (1.5 nM).
as §1

[3] = test system: Caco-2 and SkMel-28 cells; assay: Cellular uptake of ECG, TMECG and QM; assay type: in vitro ADME, human; settings: 50 μM catechins
Protocol: Cellular uptake was determined by the difference between the initial concentration of catechin and the calculated at specific times in the cellular medium, and expressed as a percentage of catechin at zero time. The values presented are the mean percentage determined from five independent experiments±SD.
For cellular uptake experiments Caco-2 and SkMel-28 cells were grown until reaching 90% confluence. Then, 20 ml of cellular medium containing 50 μM catechins and 0.2 mM ascorbic acid was added and incubated for 60 h in a CO2 incubator. At specified times 1 ml-aliquots were taken and frozen in liquid N2 until the catechin concentrations were determined by HPLC. Catechins were identified by their characteristic elution times and their concentration calculated with respect to calibration curves of known concentrations of catechins.

[4] = pH dependence of absorbance and stability of the tyrosinase product; assay type: physicochemical
Source text: We studied the oxidation of TMECG by tyrosinase at pH 5.5. […] The initial formation of o-Q was confirmed by including reducing agents such as ascorbic acid or NADPH in the reaction medium. […] The pH transition might represent the equilibrium between the protonated form (QMH) and the deprotonated form (QM^−), a species which is stabilized by resonance and FIG. 9E represents the possible abundance of QM species in different melanocyte compartments.

SkMel-28 cells [5] = assay: MTT cell proliferation assay, SkMel-28; assay type: cell-based, human; settings: for IC50: SK-MEL-28, 120 h
Protocol: (§2) Four human cancer cells lines (SkMel-28, MCF7, H1264 and Caco-2) were obtained from the American Type Tissue Culture Collection (ATCC) and were maintained in appropriate culture mediums supplemented with 10% fetal calf serum (FCS) and antibiotics, under standard tissue culture conditions (e.g. modified Eagle's medium (MEM) containing 1 mM sodium pyruvate and 10% fetal bovine serum (FES) under 5% CO2/95% air atmosphere.). Cell injury was evaluated by a colorimetric assay for mitochondrial function using the 3-(4,5-dimethylthiazolyl-2)-2,5-diphenyltetrazolium bromide (MTT) cell proliferation assay. For this assay cells were plated in a 96-well plate at a density of 1000 cells/well and grown until they reached 50-60% confluence. Human epidermal melanocytes (HeM) were supplied by Gentaur and were cultured in HAM-F10 medium supplemented with 10% FCS, antibiotics and the human melanocyte growth supplement (Gentaur).
Cell injury was evaluated by a colorimetric assay for mitochondrial function using the 3-(4,5-dimethylthiazolyl-2)-2,5-diphenyltetrazolium bromide (MTT) cell proliferation assay. For this assay cells were plated in a 96-well plate at a density of 1000 cells/well and grown until they reached 30% confluence. Co-treatments of SkMel-28 cells with TMECG and other reagents were carried out by supplementing medium cultures with S-adenosylmethionine (SAM), adenosine or dipyridamole (all from Sigma).

[6] = test system: 4T1 mice breast cancer cell line; assay: 4T1 breast cancer model in Balb/c mice; assay type: in vivo, mouse; settings: 40 mg/Kg/d intraperitoneally, Balb/c female mice
Protocol: The 4T1 mice breast cancer cell line (ATCC) was used for tumour implantation. This cell line is highly metastatic and after its injection on the back of the Balb/c mice it expanded to the lungs forming metastasis in this organ. Initial experiments were designed for injection in the back to follow tumour growth and lung metastasis.
We treated 6 Balb/c female mice were treated intraperitoneally with TMCG (40 mg/Kg/d) and compared with 6 untreated (control) mice.

SkMel-28 cells [7] = assay: Microscopy of melanosome melanin content; assay type: cell-based, human; settings: treated SkMel-28 versus untreated
Protocol: Confluent monolayers of SkMel-28 were harvested with a mixture of 0.05% trypsin, 0.53 mmol/L EDTA and washed once in 0.25 mol/L sucrose by centrifugation at 700×g for 5 min at 4° C. They were then homogenized on ice using 20 strokes of an ice-cold Dounce homogenizer and centrifuged at 700×g for 10 min at 4° C. The resultant postnuclear supernatant was centrifuged at 17,000×g for 15 min at 4° C. to yield a melanosome-enriched granular fraction (17). This fraction was resuspended in 0.5-2 ml of ice-cold 0.25 mol/L sucrose, 10 mmol/L HEPES, pH 7.0 and fixed for 1 h at room temperature in 2% glutaraldehyde, 2% paraformaldehyde in 0.1 mol/L sodium cacodylate buffer, pH 7.3. The fixative was then removed and the samples stored in PBS containing 4% sucrose at 4° C. Samples were subsequently dehydrated with graded alcohols and embedded in epoxy resin. This section were stained with uranyl acetate and lead citrate and examined with a Zeiss EM10 electron microscope.

MAT2A = settings: cited from earlier work
human tyrosinase = target: T2, human tyrosinase (Homo sapiens, UniProt P14679); settings: recombinant human tyrosinase (Kong et al., 2000); read-out: Michaelis-Menten constant (Km), value reported; cited from earlier work
T2 sequence (P14679 19-529): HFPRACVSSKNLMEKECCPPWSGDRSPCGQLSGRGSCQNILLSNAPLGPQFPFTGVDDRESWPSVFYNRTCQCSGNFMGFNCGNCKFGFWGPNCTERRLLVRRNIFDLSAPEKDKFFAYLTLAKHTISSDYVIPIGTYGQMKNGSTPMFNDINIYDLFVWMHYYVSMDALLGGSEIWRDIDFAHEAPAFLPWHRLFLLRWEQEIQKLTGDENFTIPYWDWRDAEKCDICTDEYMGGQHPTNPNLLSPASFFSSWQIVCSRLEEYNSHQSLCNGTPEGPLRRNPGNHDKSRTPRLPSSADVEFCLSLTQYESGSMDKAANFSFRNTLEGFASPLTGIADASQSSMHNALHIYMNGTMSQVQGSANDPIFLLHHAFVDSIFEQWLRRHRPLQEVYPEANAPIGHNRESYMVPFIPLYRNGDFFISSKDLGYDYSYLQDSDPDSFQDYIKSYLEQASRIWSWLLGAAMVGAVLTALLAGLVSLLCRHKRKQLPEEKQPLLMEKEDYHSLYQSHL

Caco-2 cells = assay: MTT cell proliferation assay, Caco-2; assay type: cell-based, human; settings: Caco-2
Protocol: as §2

[8] = test system: B16/F10 melanoma cell tumours; assay: Primary tumour model, B16/F10 melanoma in C57/B16 mice; assay type: in vivo, mouse
Source text: Translational therapy was then designed to probe the efficacy of this combination on mice induced melanoma tumor. Injection of 5×10^5 B16/F10 melanoma cells in the back of C57/B16 mice formed a blackish tumor mass, which in untreated control mice reached to a tumor area of 3.7±0.7 and 9.3±1.1 cm2 in female and male, respectively, after 21 days of cells inoculation.

Compound: epicatechin-3-gallate [ECG, reference compound]
koff (rHDHFR [1]): 0.30 s⁻¹
Ki (rHDHFR [1]): 1780 nM
kon (rHDHFR [1]): 170000 M⁻¹ s⁻¹
Decrease % further EI reactions (rHDHFR [2]): 19 −fold
Ki (rHDHFR [2]): 92 nM

stability [4]: high stability over a wide pH range
pKa ([4]; absorbance at 470 nm vs pH, read-out: pKa of ionisable group): 6.9 ± 0.1
reversibility of binding to rHDHFR (rHDHFR [1]): essentially irreversible
koff (rHDHFR [1]; read-out: koff): 0.00048 s⁻¹
Ki (rHDHFR [1]): 8.2 ± 0.11 nM
kon (rHDHFR [1]; read-out: kon): 58000 M⁻¹ s⁻¹
Decrease % further EI reactions (rHDHFR [2]): 0 −fold
Ki (rHDHFR [2]): 8.2 nM
Compound: COc1cc(C(=O)O[C@H](Cc2c(O)cc(O)cc2O)C(=O)c2ccc(O)c(O)c2)cc(OC)c1OC [QM]
cellular uptake / membrane transport [3]: limited degree of cell membrane diffusion

Compound: Nc1ncnc2c1ncn2[C@@H]1O[C@H](CO)[C@@H](O)[C@H]1O [Adenosine, adenosine]
effect of adenosine alone on SkMel-28 growth (SkMel-28 cells [5]; up to 500 μM): had not any detectable effect

Compound: COc1cc(C(=O)O[C@H]2Cc3c(O)cc(O)cc3O[C@@H]2c2ccc(O)c(O)c2)cc(OC)c1OC [TMCG, 3-O-(3,4,5-Trimethoxybenzoyl)-(−)-Catechin]
growth of metastases (lung tumor volume) [6]: slower growth of metastases

Compound: CN(Cc1cnc2nc(N)nc(N)c2n1)c1ccc(C(=O)N[C@@H](CCC(=O)O)C(=O)O)cc1 [MTX, methotrexate]
effect of leucovorin co-treatment on growth inhibition (SkMel-28 cells [5]; 100 μM leucovorin, MTX 1 μM or TMECG 50 μM, 3 days): effectively reversed this inhibition
inhibition at 1 µM (SkMel-28 cells [5]; Homo sapiens, SK-MEL-28, 72 h, 1 μM, 3 days, SkMel-28, read-out: growth inhibited): 70%
effect of sulfasalazine (RFC inhibitor) on antiproliferative action (SkMel-28 cells [5]; sulfasalazine 0.5 mM, MTX 0.2 μM or TMECG 10 μM, 3 days): inhibited the antiproliferative action of MTX
melanosome melanin content (SkMel-28 cells [7]): much less melanin content

Compound: CSCC[C@H](N)C(=O)O [methionine]
Km (MAT2A): 4 to 10 µM

Compound: N[C@@H](Cc1ccc(O)c(O)c1)C(=O)O [L-dopa]
Km (human tyrosinase): 360 µM

Compound: C[S+](CC[C@H](N)C(=O)O)C[C@H]1O[C@@H](n2cnc3c(N)ncnc32)[C@H](O)[C@@H]1O (stereo partly shown) [SAM, S-adenosylmethionine, reference compound]
effect of SAM alone on SkMel-28 growth (SkMel-28 cells [5]; SAM alone): Only high amount of SAM (up to 100 μM) affected SkMel-28 growth
IC50 (MAT2A; Sullivan and Hoffman, 1983, read-out: IC50 for inhibition of MAT2): 60000 nM

Compound: Oc1cc(O)c2c(c1)O[C@H](c1ccc(O)c(O)c1)[C@H](O)C2 [EC, Epicatechin, reference compound]
effect of natural and synthetic catechins on Caco-2 growth (Caco-2 cells): no detectable activity

Compound: OCCN(CCO)c1nc(N2CCCCC2)c2nc(N(CCO)CCO)nc(N3CCCCC3)c2n1 [Dipyridamole, dipyridamole, reference compound]
IC50 (SkMel-28 cells [5]; Homo sapiens, dipyridamole alone, SkMel-28, read-out: IC50 (at 5 days)): 20000 nM
IC50 (SkMel-28 cells [5]; Homo sapiens, in the presence of 50 μM TMECG, SkMel-28, read-out: IC50 (at 5 days) in the presence of TMECG): < 1000 nM
effect on tumor growth ([8]; females, DIPY 10 mg/Kg/d alone): had not visible effects on tumor growth
effect of single treatments ([8]; male mice): not effective

koff (rHDHFR [1]): 0.12 s⁻¹
Ki (rHDHFR [1]): 920 nM
kon (rHDHFR [1]): 130000 M⁻¹ s⁻¹
Decrease % further EI reactions (rHDHFR [2]): 28 −fold
Ki (rHDHFR [2]): 33 nM
Compound: O=C(O[C@@H]1Cc2c(O)cc(O)cc2O[C@@H]1c1cc(O)c(O)c(O)c1)c1cc(O)c(O)c(O)c1 [EGCG, reference compound]
